Experiments:
[1] = target: T1, Human GPR120 short form (Homo sapiens, UniProt Q5NUL3); assay: Human GPR120 calcium flux assay, Procedure Calcium B (4200 cells/well); type: cell-based
T1 construct: expressed in transfected cells
T1 sequence (Q5NUL3 1-361): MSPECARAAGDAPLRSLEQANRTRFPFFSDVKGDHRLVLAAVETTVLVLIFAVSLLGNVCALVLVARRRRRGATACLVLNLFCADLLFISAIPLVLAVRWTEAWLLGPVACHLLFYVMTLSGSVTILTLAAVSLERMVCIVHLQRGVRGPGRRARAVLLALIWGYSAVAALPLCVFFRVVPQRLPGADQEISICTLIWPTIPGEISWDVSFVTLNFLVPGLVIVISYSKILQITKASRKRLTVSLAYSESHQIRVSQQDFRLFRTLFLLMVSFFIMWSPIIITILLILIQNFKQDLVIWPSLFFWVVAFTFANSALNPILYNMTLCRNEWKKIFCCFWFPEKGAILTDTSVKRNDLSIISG
Experimental: Human GPR120 in Calcium Flux Assay
These cells are first loaded with the Ca^+2 sensitive dye, Fluo-4 NW. Upon stimulation, intracellular released Ca^+2 can bind to the dye and alter its fluorescence intensity. This increase in fluorescence signal, and thus the flux in intracellular [Ca^2+], is detected and quantitated by fluorescence imaging using a FLIPR reader. The effect of the agonist is measured as a function of concentration and used to calculate an EC50 based upon a response curve.
In this procedure 4200 cells/well were employed.
A Human GPR120 clone (Genbank accession number NM_001195755.1) was placed into the pcDNA3.1 mammalian expression vector carrying the neomycin resistance gene. A stable mammalian cell was generated by placing the above clone into a HEK293 background. […] Cells were split 2 times a week to keep the cells in the log-phase growth. […]
The assay was performed on a FLIPR plate reader using the following parameters. Baseline was read for 10 seconds at 1 sec intervals. The program was set to transfer 10 μL of ligand from compound plate to cell plate after baseline reading. Aspiration was executed at: 10 μL/sec speed, 4.6 μL height, Dispensing was executed at: 30 μL/sec speed, 45 μL height. After compound addition, each well was read for 300 sec, with measurements collected at 1 sec intervals.
The kinetic data from the FLIPR was based upon a 5 minute window for data collection. The fluorescence of each sample well was used for individual calculations of a normalized RFU value, which was defined as maximum response minus the minimum response. The normalized fluorescence reading (RFU) was calculated as follows: RFU=Fmax−Fmin
The Fitting Equation was: Y=Bottom+(Top-Bottom)/(1+10^((Log EC50−X)*HillSlope)), where X is the log of the concentration and Y is the response.

[2] = target: T2, human GPR40 (Homo sapiens, UniProt O14842); assay: GPR40 calcium flux assay, human GPR40; type: cell-based; settings: HEK293 cells stably expressing GPR40; table does not say human or rat
T2 construct: expressed in transfected cells
T2 sequence (O14842 whole entry): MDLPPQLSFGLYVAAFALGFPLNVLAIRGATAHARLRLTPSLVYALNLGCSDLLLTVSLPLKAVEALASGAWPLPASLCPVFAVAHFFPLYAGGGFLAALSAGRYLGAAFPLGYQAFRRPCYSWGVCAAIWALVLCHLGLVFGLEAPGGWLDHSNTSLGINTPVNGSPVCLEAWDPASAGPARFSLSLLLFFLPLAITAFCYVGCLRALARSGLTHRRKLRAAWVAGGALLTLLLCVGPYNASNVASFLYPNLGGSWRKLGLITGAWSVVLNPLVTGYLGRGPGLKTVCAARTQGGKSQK
Experimental: Compounds were tested in a calcium flux assay using transfected HEK293 cells stably expressing either human GPR40 or rat GPR40. Human GPR40 expressing cells were cultured in DMEM−High Glucose media supplemented with 10% fetal bovine serum, 1×L-Glutamine, 1×Penicillin/Streptomycin and 500 μg/mL G418. Rat GPR40 expressing cells were cultured in DMEM−High Glucose media supplemented with 10% fetal bovine serum and 1 μg/mL puromycin. Cells were plated into poly-D-lysine coated 384-well plates and cultured overnight in a 37° C. humidified tissue culture incubator under 5% CO2/[…] atmosphere.
On the day of the experiment, the culture media was replaced with assay buffer (HBSS, 20 mM HEPES, 0.1% BSA) and the cells incubated at 37° C. for 1 h. Calcium-sensitive fluorescent dye (Fluo 8 No-Wash Calcium Dye, ABD Bioquest) was then added and the cells incubated for another 30 min at 37° C. followed by 15 min at room temperature while protected from the light. The cell plate and a plate of diluted compounds of Formula (I) were loaded into a fluorescent plate reader that added compounds onto the cells while measuring the fluorescence intensity of each well. The plate reader recorded fluorescence intensity at 1 second intervals for 8 min and provided the data for analysis in an Excel format. EC50 values were calculated using Prism (GraphPad) software.

SMILES	EC50 [1] [nM]	EC50 [2] [nM]
Cc1ccc(C2=C(COc3ccc(CCC(=O)O)c(Cl)c3)CC(F)(F)C2)cc1 [Compound 250, 3-[2-chloro-4-[[4,4-difluoro-2-(p-tolyl)cyclopenten-1-yl]methoxy]phenyl]Propanoic Acid]	76	1480
Cc1c(CCC(=O)O)cc(F)c(OCC2=C(c3ccc(F)cc3)CCC2)c1C [Compound 254, 3-[5-fluoro-4-[[2-(4-fluorophenyl)cyclopenten-1-yl]methoxy]-2,3-dimethyl-phenyl]Propanoic Acid]	594	> 5000
COc1cc(C)ccc1C1=C(COc2ccc(CCC(=O)O)cc2)CCC1 [Compound 255]	> 5000	1300
Cc1ccccc1C1=C(COc2ccc(CCC(=O)O)c(C(F)(F)F)c2)CCC1 [Compound 257, 3-[4-[[2-(o-tolyl)cyclopenten-1-yl]methoxy]-2-(trifluoromethyl)phenyl]Propanoic Acid]	2640	337
O=C(O)CCc1ccc(OCC2=C(c3ccccc3)CCC2)cc1Cl [Compound 259, 3-[2-chloro-4-[(2-phenylcyclopenten-1-yl)methoxy]phenyl]Propanoic Acid]	1220	1570
COc1cc(C2=C(COc3ccc(CCC(=O)O)cc3)CCC2)ccc1C [Compound 261]	1540	1620
Cc1cc(OCC2=C(c3ccccc3C)CCC2)c(F)cc1CCC(=O)O [Compound 262, 3-[5-fluoro-2-methyl-4-[[2-(o-tolyl)cyclopenten-1-yl]methoxy]phenyl]Propanoic Acid]	> 5000	1290
O=C(O)CCc1ccc(OCC2=C(c3cccc(F)c3)CCC2)cc1C(F)(F)F [Compound 263, 3-[4-[[2-(3-fluorophenyl)cyclopenten-1-yl]methoxy]-2-(trifluoromethyl)phenyl]Propanoic Acid]	262	134
Cc1cc(OCC2=C(c3ccccc3Cl)CCC2)c(F)cc1CCC(=O)O [Compound 265, 3-[4-[[2-(2-chlorophenyl)cyclopenten-1-yl]methoxy]-5-fluoro-2-methyl-phenyl]Propanoic Acid]	1210	1140
Cc1ccc(C2=C(COc3cc(C)c(CCC(=O)O)cc3F)CCC2)c(F)c1 [Compound 270, 3-[5-fluoro-4-[[2-(2-fluoro-4-methyl-phenyl)cyclopenten-1-yl]methoxy]-2-methyl-phenyl]Propanoic Acid]	189	1500
O=C(O)CCc1ccc(OCC2=C(c3ccc(C(F)(F)F)cc3)CCC2)cc1Cl [Compound 272, 3-[2-chloro-4-[[2-[4-(trifluoromethyl)phenyl]cyclopenten-1-yl]methoxy]phenyl]Propanoic Acid]	2240	265
Cc1ccc(C2=C(COc3ccc(CCC(=O)O)c(Cl)c3)CCC2)c(F)c1 [Compound 273, 3-[2-chloro-4-[[2-(2-fluoro-4-methyl-phenyl)cyclopenten-1-yl]methoxy]phenyl]Propanoic Acid]	213	1040
O=C(O)CCc1ccc(OCC2=C(c3ccc(Cl)cc3F)CCC2)cc1Cl [Compound 275]	307	286
O=C(O)CCc1ccc(OCC2=C(c3ccc(Br)cc3)CCC2)cc1Cl [Compound 276, 3-[4-[[2-(4-bromophenyl)cyclopenten-1-yl]methoxy]-2-chloro-phenyl]Propanoic Acid]	427	193
COc1ccc(C2=C(COc3cc(C)c(CCC(=O)O)cc3F)CCC2)c(C)c1 [Compound 278, 3-[5-fluoro-4-[[2-(4-methoxy-2-methyl-phenyl)cyclopenten-1-yl]methoxy]-2-methyl-phenyl]Propanoic Acid]	> 5000	302

Further compounds by falling EC50 [1], results first:

EC50 [1] [nM]	EC50 [2] [nM]	SMILES
2240	604	O=C(O)CCc1ccc(OCC2=C(c3ccc(Br)cc3)CCC2)cc1C(F)(F)F [Compound 269, 3-[4-[[2-(4-bromophenyl)cyclopenten-1-yl]methoxy]-2-(trifluoromethyl)phenyl]Propanoic Acid]
799	2680	Cc1cc(OCC2=C(c3ccccc3)CCC2)c(F)cc1CCC(=O)O [Compound 277, 3-[5-fluoro-2-methyl-4-[(2-phenylcyclopenten-1-yl)methoxy]phenyl]Propanoic Acid]
685	992	[2H]C([2H])([2H])c1ccc(C2=C(COc3ccc(CCC(=O)O)c(C(F)(F)F)c3)CCC2)cc1 [Compound 268-D, 3-[4-[[2-[4-(trideuteriomethyl)phenyl]cyclopenten-1-yl]methoxy]-2-(trifluoromethyl)phenyl]Propanoic Acid]
614	481	O=C(O)CCc1ccc(OCC2=C(c3ccccc3)CCC2)cc1C(F)(F)F [Compound 258, 3-[4-[(2-phenylcyclopenten-1-yl)methoxy]-2-(trifluoromethyl)phenyl]Propanoic Acid]
541	488	O=C(O)CCc1ccc(OCC2=C(c3ccc(F)cc3)CCC2)cc1Cl [Compound 260, 3-[2-chloro-4-[[2-(4-fluorophenyl)cyclopenten-1-yl]methoxy]phenyl]Propanoic Acid]
518	215	O=C(O)CCc1ccc(OCC2=C(c3ccc(Cl)c(F)c3)CCC2)cc1Cl [Compound 274, 3-[2-chloro-4-[[2-(4-chloro-3-fluoro-phenyl)cyclopenten-1-yl]methoxy]phenyl]Propanoic Acid]
495	3520	COc1ccc(C2=C(COc3cc(C)c(CCC(=O)O)cc3F)CCC2)cc1 [Compound 279, 3-[5-fluoro-4-[[2-(4-methoxyphenyl)cyclopenten-1-yl]methoxy]-2-methyl-phenyl]Propanoic Acid]
346	471	Cc1cc(OCC2=C(c3ccc(Cl)c(F)c3)CCC2)c(F)cc1CCC(=O)O [Compound 280, 3-[4-[[2-(4-chloro-3-fluoro-phenyl)cyclopenten-1-yl]methoxy]-5-fluoro-2-methyl-phenyl]Propanoic Acid]
314	474	Cc1cc(OCC2=C(c3ccc(Cl)cc3F)CCC2)c(F)cc1CCC(=O)O [Compound 281, 3-[4-[[2-(4-chloro-2-fluoro-phenyl)cyclopenten-1-yl]methoxy]-5-fluoro-2-methyl-phenyl]Propanoic Acid]
195	579	O=C(O)CCc1ccc(OCC2=C(c3ccc(Cl)cc3)CC(F)(F)C2)cc1Cl [Compound 251, 3-[2-chloro-4-[[2-(4-chlorophenyl)-4,4-difluoro-cyclopenten-1-yl]methoxy]phenyl]Propanoic Acid]
192	247	Cc1ccc(C2=C(COc3ccc(CCC(=O)O)c(C(F)(F)F)c3)CCC2)cc1F [Compound 282, 3-[4-[[2-(3-fluoro-4-methyl-phenyl)cyclopenten-1-yl]methoxy]-2-(trifluoromethyl)phenyl]Propanoic Acid]
173	463	Cc1ccc(C2=C(COc3ccc(CCC(=O)O)c(C(F)(F)F)c3)CC(F)(F)C2)cc1 [Compound 249, 3-[4-[[4,4-difluoro-2-(p-tolyl)cyclopenten-1-yl]methoxy]-2-(trifluoromethyl)phenyl]Propanoic Acid]
103	1590	Cc1ccc(C2=C(COc3cc(C)c(CCC(=O)O)cc3F)CCC2)cc1F [Compound 264, 3-[5-fluoro-4-[[2-(3-fluoro-4-methyl-phenyl)cyclopenten-1-yl]methoxy]-2-methyl-phenyl]Propanoic Acid]
